Laboratory results taken from US10744128B2, “6-(5-membered heteroaryl)isoquinolin-3-yl-(5-membered heteroaryl) carboxamides and preparation and use thereof” (Samumed, LLC, priority 2017, dated 2020).
Where two headings read alike, the source gives them in different places.

Legend:
[1] = tested on: primary human fibroblasts derived from IPF patients (LL29 cells), α-smooth muscle actin; assay: Inhibition of fibrotic process: αSMA in TGF-β1 treated LL29 fibroblasts; assay type: cell-based; settings: Homo sapiens, Fibroblast; for EC50: 96 h, LL29 cells, TGF-β1 20 ng/mL, 4 days, % cells positive for αSMA; for inhibition at 10 µM: read-out: percent inhibition at 10 μM
Method: Representative compounds were screened using primary human fibroblasts (derived from IPF patients) treated with TGF-β1 to determine their ability to inhibit the fibrotic process.
LL29 cells were plated at 1,500 cells/well in 70 μL/well F12 medium supplemented with 1% Fetal Bovine Serum. […] Wells treated with TGF-β1 and containing DMSO were used as positive control, and cells with only DMSO were negative control. […] Following incubation for 4 days, SYTOX green nucleic acid stain (Life Technologies [Thermo Fisher Scientific]) was added to the wells at a final concentration of 1 μM and incubated at room temperature for 30 min.

[2] = biological target: recombinant DYRK1A kinase (Homo sapiens (Human), UniProt Q13627); assay: DYRK1A kinase assay (Ser/Thr 18 peptide Z-lyte, FRET)
[3] = biological target: recombinant GSK3β kinase (Homo sapiens (Human), UniProt P49841); assay: GSK3β kinase assay (Ser/Thr 09 peptide Z-lyte, FRET); assay type: biochemical
recombinant GSK3β kinase, sequence (P49841 whole entry): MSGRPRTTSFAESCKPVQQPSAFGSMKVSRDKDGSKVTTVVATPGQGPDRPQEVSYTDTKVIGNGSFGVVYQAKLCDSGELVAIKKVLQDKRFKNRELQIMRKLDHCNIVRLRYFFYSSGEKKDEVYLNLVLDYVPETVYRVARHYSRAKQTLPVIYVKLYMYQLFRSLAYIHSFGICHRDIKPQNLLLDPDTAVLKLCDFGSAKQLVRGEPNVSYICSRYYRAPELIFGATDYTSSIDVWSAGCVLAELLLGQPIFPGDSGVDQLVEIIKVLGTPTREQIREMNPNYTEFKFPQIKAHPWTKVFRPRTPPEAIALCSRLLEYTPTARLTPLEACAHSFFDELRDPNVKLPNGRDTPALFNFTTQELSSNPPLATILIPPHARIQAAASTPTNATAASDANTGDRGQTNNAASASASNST

[4] = tested on: SW480 colon carcinoma cells; assay: Cell viability assay (CellTiter-Glo) in SW480 cells; assay type: cell-based, human; settings: Homo sapiens, 96 h, four days
Method: SW480 colon carcinoma cells were transduced with a lentiviral vector expressing luciferase with a human Sp5 promoter consisting of a sequence of eight TCF/LEF binding sites. SW480 cells stably expressing the Sp5-Luc reporter gene and a hygromycin resistance gene were selected by treatment with 150 µg/mL of hygromycin for 7 days. These stably transduced SW480 cells were expanded in cell culture and used for all further screening activities.
For the Cell Viability Assays, the cells were plated at 2,000 cells/well in 384-well plates with a DMEM medium containing 1% fetal bovine serum, and 1% Penicillin-Streptomycin and incubated for […] at 37° C. and 5% CO2. Eight replicates of DMSO-treated cells served as controls and cells treated with compound were performed in duplicate.
After incubation, 10 μL of CellTiter-Glo (Promega) was added to each well allowed to incubate for approximately 12 minutes. This reagent “results in cell lysis and generation of a luminescent signal proportional to the amount of ATP present. The amount of ATP is directly proportional to the number of cells present in culture, in agreement with previous reports. The CellTiter-Glo® Assay generates a “glow-type” luminescent signal, produced by the luciferase reaction (Promega.com)”.

[5] = tested on: IL-6; assay: IL-6 inhibition in LPS-stimulated human peripheral blood mononuclear cells (HTRF); assay type: cell-based; settings: Homo sapiens, PBMC; for EC50: huPBMCs, LPS 50 ng/mL, 22 hours, IL-6 HTRF; for inhibition at 10 µM: read-out: percent inhibition at 10 μM
Method: Fresh Normal PB MNC (Catalog # PB001, AllCells, Alameda, Calif.) were shipped overnight at 4° C. and resuspended in Roswell Park Memorial Institute (RPMI) 1640 Medium, with GlutaMAX Supplement (Catalog #61870127, ThermoFisher Scientific, Waltham, Mass.) supplemented with 1% Penicillin-Streptomycin (Catalog #15140163, ThermoFisher Scientific, Waltham, Mass.) and 1% fetal bovine serum (FBS) (Catalog #16140089, ThermoFisher Scientific, Waltham, Mass.) assay media.
Fresh normal human peripheral blood mononuclear cells (huPBMCs) were resuspended in 1% FBS-RPMI assay media with 1% Penicillin-Streptomycin 1% to a cell concentration of 1×10e6 cells/mL. […] 50 ng/mL of Lipopolysaccharides from Escherichia coli 0111:B4 (Catalog #L5293-2ML, Sigma-Aldrich, St. Louis, Mo.) was added after 2 hours and cells were incubated for another 22 hours at 37° C.-5% CO2. After 22 hour incubation, a mixture of anti-IL6 XL665 and anti-IL-6 Cryptate diluted in reconstitution buffer (Catalog #62IL6PEC, Cisbio Inc., Bedford, Mass.) was added to each well. Following incubation for 3 hours at room temperature, Homogeneous Time-Resolved Fluorescence (HTRF) was measured using the Envision (Perkin Elmer, Shelton, Conn.) at 665 nm and […]. The ratio of fluorescence at 665 nm to 620 nm was used as a readout for IL-6 quantification. All samples were processed in duplicate. Readings were normalized to DMSO treated cells and normalized activities were utilized for EC50 calculations. EC50 was determined using software generated by Dotmatics Limited (Windhill Bishops Stortford Herts, UK) using the Levenberg-Marquardt 4 parameter fitting procedure with finite different gradients.

[6] = tested on: Wnt-responsive promoter (Sp5-Luc reporter) in SW480 colon carcinoma cells; assay: Sp5-Luc reporter gene screening assay for Wnt activity in SW480 cells; assay type: cell-based, human; settings: Homo sapiens, 36 to 48 hours, luminescence
From the text: The screening assay for Wnt activity is described as follows. Reporter cell lines can be generated by stably transducing cancer cell lines (e.g., colon cancer) or primary cells (e.g., IEC-6 intestinal cells) with a lentiviral construct that includes a Wnt-responsive promoter driving expression of the firefly luciferase gene.
SW480 colon carcinoma cells were transduced with a lentiviral vector expressing luciferase with a human Sp5 promoter consisting of a sequence of eight TCF/LEF binding sites. SW480 cells stably expressing the Sp5-Luc reporter gene and a hygromycin resistance gene were selected by treatment with 150 μg/mL of hygromycin for 7 days. These stably transduced SW480 cells were expanded in cell culture and used for all further screening activities. […] For Sp5-Luc reporter gene assays, the cells were plated at 4,000 cells/well in 384-well plates with a DMEM medium containing 1% fetal bovine serum, and 1% Penicillin-Streptomycin and incubated for 36 to 48 hours at 37° C. and 5% CO2. Following incubation, 15 μl of BriteLite Plus luminescence reagent (Perkin Elmer) was added to each well of the 384-well assay plates. The plates were placed on an orbital shaker for 2 min and then luminescence was quantified using the Envision (Perkin Elmer) plate reader. Readings were normalized to DMSO only treated cells, and normalized activities were utilized for EC50 calculations using the dose-response log (inhibitor) vs. response −variable slope (four parameters) nonlinear regression feature available in GraphPad Prism 5.0 (or Dotmatics).

[7] = DYRK1A kinase, 30 μM ATP, one hour, method calls values IC50
[8] = GSK3β kinase, 46 μM ATP, one hour, method calls values IC50

| SMILES | EC50 [1] | EC50 [2, 7] | EC50 [3, 8] | EC50 [4] | EC50 [5] | EC50 [6] | inhibition at 10 µM [1] | inhibition at 10 µM [5] | EC50 [2] | EC50 [3] |
| --- | --- | --- | --- | --- | --- | --- | --- | --- | --- | --- |
| CC(C)N1CCC(n2cc(C(=O)Nc3cc4cc(-c5cn(C)nn5)ccc4cn3)nn2)CC1 [Compound 35, 1-(1-Isopropylpiperidin-4-yl)-N-(6-(1-methyl-1H-1,2,3-triazol-4-yl)isoquinolin-3-yl)-1H-1,2,3-triazole-4-carboxamide] | 635 nM | 10 nM | 295 nM | 306 nM | 2110 nM | 111 nM | – | – | – | – |
| Cn1cc(-c2ccc3cnc(NC(=O)c4coc(C5CCNCC5)n4)cc3c2)nn1 [Compound 36, N-(6-(1-Methyl-1H-1,2,3-triazol-4-yl)isoquinolin-3-yl)-2-(piperidin-4-yl) oxazole-4-carboxamide] | 596 nM | 19 nM | 458 nM | 399 nM | 2540 nM | 114 nM | – | – | – | – |
| CN1CCC(c2nc(C(=O)Nc3cc4cc(-c5cn(C)nn5)ccc4cn3)co2)CC1 [Compound 37, N-(6-(1-Methyl-1H-1,2,3-triazol-4-yl)isoquinolin-3-yl)-2-(1-methylpiperidin-4-yl)oxazole-4-carboxamide] | 248 nM | 24 nM | 342 nM | 179 nM | 2660 nM | 105 nM | – | – | – | – |
| CC(C)N1CCC(c2nc(C(=O)Nc3cc4cc(-c5cn(C)nn5)ccc4cn3)co2)CC1 [Compound 38, 2-(1-Isopropylpiperidin-4-yl)-N-(6-(1-methyl-1H-1,2,3-triazol-4-yl)isoquinolin-3-yl)oxazole-4-carboxamide] | > 10000 nM | 180 nM | 1350 nM | 1630 nM | > 10000 nM | 555 nM | 3.9% | 5.3% | – | – |
| Cn1cc(C(=O)Nc2cc3cc(-c4cncn4C)ccc3cn2)cn1 [Compound 40, 1-Methyl-N-(6-(1-methyl-1H-imidazol-5-yl)isoquinolin-3-yl)-1H-pyrazole-4-carboxamide] | > 10000 nM | 4 nM | 1830 nM | 442 nM | 751 nM | 109 nM | 23.2% | – | – | – |
| CCn1cc(C(=O)Nc2cc3cc(-c4cncn4C)ccc3cn2)cn1 [Compound 41, 1-Ethyl-N-(6-(1-methyl-1H-imidazol-5-yl)isoquinolin-3-yl)-1H-pyrazole-4-carboxamide] | 122 nM | 2 nM | 850 nM | 102 nM | 618 nM | 37 nM | – | – | – | – |
| CC(C)n1cc(C(=O)Nc2cc3cc(-c4cncn4C)ccc3cn2)cn1 [Compound 42, 1-Isopropyl-N-(6-(1-methyl-1H-imidazol-5-yl)isoquinolin-3-yl)-1H-pyrazole-4-carboxamide] | 2500 nM | 23 nM | 9990 nM | 999 nM | > 10000 nM | 602 nM | – | 37.1% | – | – |
| [2H]c1nc(NC(=O)c2cnn(C(C)C)c2)cc2cc(-c3cncn3C)ccc12 [Compound 43, 1-Isopropyl-N-(6-(1-methyl-1H-imidazol-5-yl)isoquinolin-3-yl-1-d)-1H-pyrazole-4-carboxamide] | 151 nM | – | – | 83 nM | 251 nM | 48 nM | – | – | 2 nM | 3070 nM |
| Cn1cncc1-c1ccc2cnc(NC(=O)c3cnn(C4CC4)c3)cc2c1 [Compound 44, 1-Cyclopropyl-N-(6-(1-methyl-1H-imidazol-5-yl)isoquinolin-3-yl)-1H-pyrazole-4-carboxamide] | 115 nM | 1 nM | 1660 nM | 94 nM | 356 nM | 37 nM | – | – | – | – |
| CC(C)Cn1cc(C(=O)Nc2cc3cc(-c4cncn4C)ccc3cn2)cn1 [Compound 45, 1-Isobutyl-N-(6-(1-methyl-1H-imidazol-5-yl)isoquinolin-3-yl)-1H-pyrazole-4-carboxamide] | 88 nM | 1 nM | 1190 nM | 111 nM | 414 nM | 55 nM | – | – | – | – |
| Cn1ccc(C(=O)Nc2cc3cc(-c4cncn4C)ccc3cn2)n1 [Compound 46, 1-Methyl-N-(6-(1-methyl-1H-imidazol-5-yl)isoquinolin-3-yl)-1H-pyrazole-3-carboxamide] | 1530 nM | 5 nM | 1770 nM | 2180 nM | > 10000 nM | 1250 nM | – | 46.1% | – | – |
| Cn1cc(CC(=O)Nc2cc3cc(-c4cncn4C)ccc3cn2)cn1 [Compound 47, N-(6-(1-methyl-1H-imidazol-5-yl)isoquinolin-3-yl)-2-(1-methyl-1H-pyrazol-4-yl)acetamide] | 94 nM | 3 nM | 29 nM | 607 nM | 388 nM | 556 nM | – | – | – | – |
| Cn1cnc(C(=O)Nc2cc3cc(-c4cncn4C)ccc3cn2)c1 [Compound 48, 1-Methyl-N-(6-(1-methyl-1H-imidazol-5-yl)isoquinolin-3-yl)-1H-imidazole-4-carboxamide] | > 10000 nM | 18 nM | 3380 nM | 3550 nM | > 10000 nM | 1160 nM | 6.7% | 17.8% | – | – |
| CC(C)n1cnc(C(=O)Nc2cc3cc(-c4cncn4C)ccc3cn2)c1 [Compound 49, 1-Isopropyl-N-(6-(1-methyl-1H-imidazol-5-yl)isoquinolin-3-yl)-1H-imidazole-4-carboxamide] | 86 nM | 2 nM | 1340 nM | 73 nM | 285 nM | 35 nM | – | – | – | – |
| Cn1cncc1-c1ccc2cnc(NC(=O)c3cn(C4CCOCC4)cn3)cc2c1 [Compound 50, N-(6-(1-Methyl-1H-imidazol-5-yl)isoquinolin-3-yl)-1-(tetrahydro-2H-pyran-4-yl)-1H-imidazole-4-carboxamide] | 1180 nM | 21 nM | 4490 nM | 833 nM | 3280 nM | 100 nM | – | – | – | – |
